PubChem BioAssay AID624167 (Sanford-Burnham Center for Chemical Genomics, 2012)
Calls of active or inactive are those of the source.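 The calls were made as follows: active = mean IC50 for reducing PEG3 promoter reporter signal at or below a set limit, with IC50 above the limit in both counter screens; inactive = the rest, including counter screen hits.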

Legend:
PEG-3 [1] = target: PEG-3 (UniProt Q6IN02); test: inhibition of PEG-3 promoter-driven reporter – cell-based, HeLa, luciferase, CREF/GAPDH counter-screen panel, dose response (AID 624167); conditions: HeLa PEG-Prom luciferase reporter, overnight, CREF/GAPDH counter-screens, mean of runs
Sequence of PEG-3 (UniProt Q6IN02) (Q6IN02 whole entry, looked up): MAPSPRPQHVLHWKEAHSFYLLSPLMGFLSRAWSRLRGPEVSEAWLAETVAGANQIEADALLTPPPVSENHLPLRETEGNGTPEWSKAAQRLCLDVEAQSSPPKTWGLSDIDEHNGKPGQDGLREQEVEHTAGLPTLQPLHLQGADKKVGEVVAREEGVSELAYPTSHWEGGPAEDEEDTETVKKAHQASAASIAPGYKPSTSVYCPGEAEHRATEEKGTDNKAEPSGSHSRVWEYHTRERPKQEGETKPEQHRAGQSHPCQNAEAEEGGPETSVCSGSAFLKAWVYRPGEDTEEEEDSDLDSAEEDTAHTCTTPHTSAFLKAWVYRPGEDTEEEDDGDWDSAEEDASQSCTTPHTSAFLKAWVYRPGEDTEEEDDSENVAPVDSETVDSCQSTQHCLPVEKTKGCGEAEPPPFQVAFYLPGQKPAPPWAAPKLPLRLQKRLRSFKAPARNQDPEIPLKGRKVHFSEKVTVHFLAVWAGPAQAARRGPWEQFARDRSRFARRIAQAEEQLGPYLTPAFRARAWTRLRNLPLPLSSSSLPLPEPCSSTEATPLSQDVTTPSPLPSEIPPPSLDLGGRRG

PEG-3 [2] = test: as above; conditions: HeLa PEG-Prom luciferase reporter, overnight, CREF/GAPDH counter-screens
[3] = run 1, dose range 1, individual replicate IC50 per panel
[4] = run 2, dose range 1, individual replicate IC50 per panel

| SMILES | IC50 (PEG-3 [1]) | IC50 (PEG-3 [2]; [3]) | IC50 (PEG-3 [2]; [4]) |
| --- | --- | --- | --- |
| CCCCCCCn1c(=N)n(CC(O)c2ccco2)c2ccccc21 (stereo not given) | inactive | 22 µM | 22.2 µM |
| CCn1c2ccccc2c2cc(NC(=O)C(C)OC(=O)c3ccc(NC(=O)CC#N)cc3)ccc21 (stereo not given) | inactive | 41.9 µM | 39.1 µM |
| COCOCCn1cc(CN2CCS(=O)(=O)N(Cc3ccc(-c4ccc(Cl)c(Cl)c4)cc3)C(C(C)C)C2=O)nn1 (stereo not given) | inactive | 34.9 µM | 18 µM |
| CC(Cc1ccccc1)NCCC(c1ccccc1)c1ccccc1 (stereo not given) | 19.5 µM | 19.9 µM | 19.1 µM |
| CC(=O)Nc1ccc(S(=O)(=O)N(Cc2cccnc2)Cc2cc3ccccc3[nH]c2=O)cc1 | > 100 µM (inactive) | > 100 µM | > 100 µM |
| Cc1ccc(NS(=O)(=O)c2cc3c4c(cccc4c2)C(=O)NC3=O)cc1C | inactive | 5.99 µM | > 100 µM |
| Cc1ccc(C(=O)N(CCCN(C)C)c2nc3ccc(Cl)cc3s2)cc1C | 18.4 µM | 18.9 µM | 18 µM |
| CC(C)NC(=O)NC(=O)COC(=O)c1c2c(nc3ccccc13)CCC2 | inactive | 16.5 µM | 27.8 µM |
| CC(NS(=O)(=O)OCC(Cl)(Cl)Cl)c1ccc(C(C)(C)C)cc1 (stereo not given) | inactive | 38.1 µM | > 100 µM |
| COc1ccc2nc3n(c(=O)c2c1)-c1cc2ccccc2cc1C(=O)NC3Cc1ccc(O)cc1 (stereo not given) | 17.5 µM | 21.2 µM | 13.9 µM |
| Cc1cc(C)c2sc(N(CCCN(C)C)C(=O)c3ccc(S(=O)(=O)N(C)Cc4ccccc4)cc3)nc2c1 | 18.9 µM | 20.3 µM | 17.4 µM |
| CN(C)C(=O)c1cccc(-c2cnc3c(NC=O)cc(-c4cccc(C(F)(F)F)c4)cn23)c1 | 16 µM | 11.6 µM | 20.3 µM |
| Cc1cccc(CN2C(=O)[C@H]3Cc4c([nH]c5ccccc45)C(C)(C)N3C2=O)c1 | inactive | 29.9 µM | 28.6 µM |
| CC(C)(c1ccccc1)c1ccc(OCC(O)CNC2CCN(Cc3ccccc3)CC2)cc1 (stereo not given) | 15.7 µM | 21.9 µM | 9.42 µM |
| O=C(NC(c1ccc(F)cc1)c1ccc2ccccc2n1)C1CCN(Cc2cccc(C(F)(F)F)c2)CC1 (stereo not given) | 12.1 µM | 16.2 µM | 7.91 µM |
| NC(=O)C1CCN(C2=C(Cl)C(=O)c3ccccc3C2=O)CC1 | 17.3 µM | 17.9 µM | 16.6 µM |
| Cc1ccc(C)c(CN2CCC(CNC(=O)Nc3ccc(F)c(Cl)c3)CC2)c1 | 14.7 µM | 17.3 µM | 12 µM |
| CCCCC(=O)NC(c1ccccc1Cl)c1ccc2cccnc2c1O (stereo not given) | inactive | 2.98 µM | > 100 µM |
| COC(=O)C1=C(C)N(Cc2ccccc2)C(=NCCc2c[nH]c3ccccc23)N[C@H]1c1cccc(C(F)(F)F)c1 | inactive | 17.8 µM | 23 µM |
| O=C1C(Cl)=C(Nc2ccc(O)cc2)C(=O)c2ccccc21 | 11.6 µM | 16.1 µM | 7.05 µM |
| O=C(/C=C/c1ccccc1)NC(NC(=S)Nc1cccc(Cl)c1)C(Cl)(Cl)Cl (stereo not given) | 14.3 µM | 18 µM | 10.6 µM |
| CN1Cc2c(N3CCOCC3)nc3sc(C(=O)c4ccc(Br)cc4)c(N)c3c2CC1(C)C | 15.2 µM | 18.8 µM | 11.6 µM |

| SMILES | IC50 (PEG-3 [1]) | IC50 (PEG-3 [2]; [3]) | IC50 (PEG-3 [2]; [4]) |
| --- | --- | --- | --- |
| COc1ccc(C2c3ccc4ccccc4c3Oc3ncn(CCO)c(=N)c32)cc1OC (stereo not given) | 14.7 µM | 15.6 µM | 13.7 µM |
| O=C1N[C@@H](c2ccccc2)COC(=O)[C@@H](Cc2ccc(F)cc2)CC/C=C/C[C@H]1CC(=O)N(CCO)Cc1ccccc1 | inactive | 41 µM | > 100 µM |
| Cn1nnnc1Sc1ncnc2scc(-c3ccsc3)c12 | 11.5 µM | 14.7 µM | 8.36 µM |
| O=C(Nc1ccc(CN2CCCCC2)cc1)Nc1ccc(Br)cc1Cl | inactive | 20.4 µM | 19.8 µM |
| O=C(CCl)N1N=C(c2ccco2)CC1c1cccs1 (stereo not given) | inactive | 24.2 µM | 30.4 µM |
| Cc1nc(N2CCN(S(=O)(=O)c3ccccc3C#N)CC2)c2c(-c3ccccc3)csc2n1 | > 100 µM (inactive) | > 100 µM | > 100 µM |
| CN(C)CCCN1c2ccccc2Sc2ccc3ccccc3c21 | 16.9 µM | 17.7 µM | 16 µM |
| CCCCCCOc1ccc(/C(C)=N/NC2=NCCN2)cc1 | 11.9 µM | 15.7 µM | 8.2 µM |
| CC1CCCCN1S(=O)(=O)c1ccc(C(=O)N(CCCN(C)C)c2nc3ccc(Br)cc3s2)cc1 (stereo not given) | 15 µM | 19.1 µM | 10.9 µM |
| CN1CCN(CCNC(=O)c2ccc3nc(-c4ccc(F)cc4)c(-c4ccc(F)cc4)nc3c2)CC1 | 15.4 µM | 19.4 µM | 11.3 µM |
| CCN(CC)CCn1c2ccccc2c2cnc(N)c(C#N)c21 | 12.1 µM | 11.3 µM | 12.9 µM |
| CC(C)(C)OC(=O)CC(S(=O)(=O)c1ccccc1)S(=O)(=O)c1ccccc1 | 14.3 µM | 21 µM | 7.58 µM |
| O=C(O)c1ccc(N/N=C/c2ccc(OC(=O)c3ccccc3Cl)cc2)cc1 | inactive | 3.06 µM | 78.5 µM |
| COc1ccc2c(c1)[nH]c1c(=O)n(/N=C/C3C(C)C=C(C)CC3C)c(=O)[nH]c12 (stereo not given) | > 100 µM (inactive) | > 100 µM | > 100 µM |
| CCN(Cc1ccccc1)S(=O)(=O)c1ccc(C(=O)N(CCCN(C)C)c2nc3cc4c(cc3s2)OCO4)cc1 | 17.8 µM | 19.6 µM | 16 µM |
| O=C(CCCN1C(=O)/C(=C/c2ccccc2Cl)SC1=S)NNC(=O)c1ccccc1Cl | inactive | 26.4 µM | 22 µM |
| COc1ccc(CC(N)c2csc(Nc3cccc(OC)n3)n2)cc1 (stereo not given) | 15.9 µM | 17.6 µM | 14.2 µM |
| CC1(Cc2ccc(Cl)c(Cl)c2)C(=O)Nc2ccc(S(=O)(=O)NC3CCCCC3)cc21 (stereo not given) | 17.7 µM | 18.1 µM | 17.2 µM |
| CCc1nccn1C(=O)c1cnn2c(C(F)F)cc(-c3ccc(C)cc3)nc12 | 17.2 µM | 18.7 µM | 15.6 µM |
| Cc1c(C(=O)Nc2ccc(S(=O)(=O)N(C)C3CCN(C)CC3)cc2)oc2c(Cl)cccc12 | 12.8 µM | 16.5 µM | 9.1 µM |
| Cc1ccc2[nH]c(=O)c(C3C(C#N)=C(N)Oc4c3ccc3cccnc43)cc2c1 (stereo not given) | inactive | 28.3 µM | 21.7 µM |
| Cc1cc(C)c2nc(N(CCCN(C)C)C(=O)c3ccc(S(=O)(=O)N4CCCCCC4)cc3)sc2c1 | 20 µM | 24.3 µM | 15.6 µM |

| SMILES | IC50 (PEG-3 [1]) | IC50 (PEG-3 [2]; [3]) | IC50 (PEG-3 [2]; [4]) |
| --- | --- | --- | --- |
| O=Cc1cn(Cc2cccc(F)c2)c2ccccc12 | inactive | 22.6 µM | 38.8 µM |
| COc1cc(-c2cc(C(=O)N(C)Cc3ccccc3)c3ccccc3n2)cc(OC)c1OC | inactive | 69.3 µM | 72.2 µM |
| Cc1nc(N2CCN(c3ccccn3)CC2)c2c(C)c(C(=O)Nc3ccccc3F)sc2n1 | inactive | 9.97 µM | > 100 µM |
| CCOC(=O)/C(=C\c1ccccc1)C(=O)CCN1CCOCC1 | 13.3 µM | 16.6 µM | 9.98 µM |
| Nc1nc(CCl)nc(Nc2cccc3ccccc23)n1 | > 100 µM (inactive) | > 100 µM | > 100 µM |
| COc1ccc(CNCCc2c(C)[nH]c3ccc(OC(F)(F)F)cc23)c(OC)c1 | 13.4 µM | 13.6 µM | 13.1 µM |
| CCCCCCCNC(=O)C1(CC2CC(c3ccccc3)=NO2)CCNCC1 (stereo not given) | inactive | 35.4 µM | 16.7 µM |
| CCN(CC)C(=O)Cn1cc(/C=C2\C(=O)NC(=O)N(c3ccccc3F)C2=O)c2ccccc21 | 14 µM | 14.9 µM | 13.1 µM |
| CCOC(=O)c1ccc2ncc(C(=O)OCC)c(NCCN(C)C)c2c1 | inactive | 15 µM | 43.4 µM |
| COc1cc(NC(=O)c2c(F)c(F)c(F)c(F)c2F)c(OC)cc1Cl | 19.8 µM | 23.7 µM | 15.9 µM |
| CCCCCCCCCCCCCCC(O)C[N+](C)(CCO)CCO (stereo not given) | 14.3 µM | 17.7 µM | 11 µM |
| OC[C@@H]1[C@@H](c2ccc(Cl)cc2)C(c2cccc(Cl)c2)=NN1c1ccccc1 | inactive | 30.5 µM | 16.4 µM |
| COc1ccc(C(C(=O)NCC2CCCO2)N(Cc2cccs2)C(=O)c2snc(C(N)=O)c2N)cc1 (stereo not given) | inactive | > 100 µM | 9.42 µM |
| COc1ccc(/C=C/C(=O)c2ccc3c(c2)OCCO3)cc1[N+](=O)[O-] | 17 µM | 17.2 µM | 16.7 µM |
| O=S(=O)(c1cccs1)N1CCN(c2ccnc3cc(Cl)ccc23)CC1 | 17.4 µM | 11.7 µM | 23.2 µM |
| N=c1c2c(-c3ccccc3)c(-c3ccccc3)n(Cc3ccccc3)c2ncn1CCO | 14.7 µM | 18.8 µM | 10.6 µM |
| CN(C)CCCN(C(=O)c1ccc(C(=O)c2ccccc2)cc1)c1nc2cc3c(cc2s1)OCO3 | 16 µM | 18.8 µM | 13.3 µM |
| CN(C)CCNc1ccc2nnn3c4ccc(O)cc4c(=O)c1c23 | inactive | 45.4 µM | 43 µM |
| COc1ccc(C23CC4CC(CC(C4)C2)C3)cc1C(=O)NCCN(C)C | inactive | 20.6 µM | 29.9 µM |
| Cc1ccc2sc(N(CCCN(C)C)C(=O)c3ccc(S(=O)(=O)N4CCc5ccccc5C4)cc3)nc2c1C | 17.4 µM | 15.6 µM | 19.2 µM |
| COC(=O)c1cn(NC(=O)c2cc([N+](=O)[O-])ccc2F)c(=O)c2ccccc12 | inactive | 26.1 µM | 46.5 µM |
